≈ marks a conversion by molar mass, not a printed value.
Assays:
Type in all cases: cell-based
[1] = system: Escherichia coli ATCC 12435; assay: Antibacterial MIC, two-fold serial dilution; details: ATCC12435, Gram −ve bacteria, LB broth, 37°C, 24 h, visual (no turbidity)
Method: (§1) The antimicrobial activity of the synthesized thiadiazolopyrimidine compounds was studied toward diverse pathogenic strains, such as gram-positive bacteria (Staphylococcus aureus ATCC 29213 and Bacillus cereus UW85), gram-negative bacteria (Escherichia coli ATCC 12435 and Pseudomonas aeruginosa ATCC 29260), and fungi (Candida albicans and Aspergillus fumigatus 293). The assessment was performed through the two-fold dilution technique using Ampicillin (antibacterial) and Fluconazole (antifungal) as the reference drugs[28],[29]. The minimal inhibitory concentration (MICs, µg/mL) of the synthesized derivatives for prohibiting microbial growth was determined through the visual detection (no turbidity) technique.
(§2) The synthesized thiadiazolopyrimidine-based compounds were evaluated and adopted for antibacterial and antifungal effectiveness using the approved procedure[38],[39].
(§3) Minimal inhibitory concentrations (MICs) were determined by serial dilution technique using 96-multiwell microtiter plates. The investigated compounds were dissolved in DMSO 100% to prepare stock solutions of 5000 µg/mL. Two-fold serial dilutions of the dissolved compounds were performed in LB broth providing eight different concentrations (1250, 625, 312.5, 156, 78, 39, 19.5 µg/mL). Overnight cultures of microorganisms were diluted to 1 ×10^6 CFU/mL in LB broth, and 20 mL of the diluted cultures were added to the test solutions (50 mL) in the wells (one well per concentration per bacterial strain). The plates were incubated at 37°C for 24 h. MIC was detected visually as the least concentration inhibiting bacterial growth (no turbidity) and the activity of the tested compounds was estimated in comparison to ampicillin.

Bacillus cereus UW85 = assay: Antibacterial MIC, two-fold serial dilution; details: Gram +ve bacteria, LB broth, 37°C, 24 h, visual (no turbidity), read-out: MIC B. cereus
Method: as §1, §2, §3

[2] = system: Pseudomonas aeruginosa ATCC 29260; assay: Antibacterial MIC, two-fold serial dilution; details: ATCC29260, Gram −ve bacteria, LB broth, 37°C, 24 h, visual (no turbidity), read-out: MIC P. aeruginosa
Method: as §1, §2, §3

[3] = system: Staphylococcus aureus ATCC 29213; assay: Antibacterial MIC, two-fold serial dilution; details: ATCC29213, Gram +ve bacteria, LB broth, 37°C, 24 h, visual (no turbidity), read-out: MIC S. aureus
Method: as §1, §2, §3

[4] = system: Chromobacterium violaceum (ATCC 12472); assay: Antiquorum-sensing assay (violacein pigment inhibition); details: Chromobacterium violaceum, ATCC12472, 48 h, read-out: Diameter of quorum-sensing inhibition C. violaceum
Description: The synthesized thiadiazolopyrimidine-based compounds were screened for their antiquorum-sensing (anti-QS) inhibition activity by the Chromobacterium violaceum (ATCC 12472) technique using catechin as the standard compound[28]–[30]. The QS technique of C. violaceum was remarked by the detection of violacein (violet pigment)[31],[32]. Meanwhile, the reactivity of the synthesized thiadiazolopyrimidine-containing derivatives as drugs depends on their efficiency to inhibit the liberation of violacein during the QS technique. The QS inhibition was determined by the following equation: QS inhibition (mm) = (r2 − r1), where r1 is the inhibition radius of the bacterial growth and r2 is the inhibition radius for growth as well as the release of the pigment.
The anti-QS inefficiency was evaluated using the previous technique mentioned in the literature.
The culture was prepared by growing Ch. violaceum ATCC 12472 in LB broth and incubated for 16–18 h in an orbital incubator running at 28°C and 150 rpm. The culture was then adjusted to 0.5 McFarland standard (ca. 1 × 10^6 CFU/mL). Ch. violaceum (50 µL) was inoculated into LB agar (50 mL), poured into plates, and solidified. Wells were made in LB agar medium using cork borer. The tested compounds were dissolved in DMSO 100% in Eppendorf tubes for final concentration of 5 mg/mL, and 50 µL of the test solution was applied into the wells. The positive control (catechin) was also added at the same concentration and volume to each plate. In addition, DMSO (control solvent) was added to each plate. […] Bacterial growth inhibition by the tested compounds was measured as radius (r1) in mm, while both growth and pigment inhibition was measured as radius (r2) in mm. The pigment inhibition (QS inhibition) was determined by subtracting bacterial growth inhibition (r1) from the total radius (r2); thus, QS inhibition = (r2 - r1) in mm.

| Structure (SMILES) | MIC [1] | MIC (Bacillus cereus UW85) | MIC [2] | MIC [3] | zone of inhibition at 5000 µg/mL [4] |
| --- | --- | --- | --- | --- | --- |
| N#CC1=C(c2ccccc2)OC(N)=C2C(=O)N=C3SC=NN3C12 (stereo not drawn) [Compound 9b, 6-Amino-9-cyano-5-oxo-8-phenyl-5H,9aH-pyrano[3,4-e][1,3,4]thiadiazolo[3,2-a]pyrimidine] | 625 µg/mL (≈ 1930 µM) | 156 µg/mL (≈ 482 µM) | 625 µg/mL (≈ 1930 µM) | 312 µg/mL (≈ 966 µM) | 3 mm |
| Nc1n[nH]c2c1c(=O)nc1scnn12 [Compound 4, 3-Aminopyrazolo[4,3-e][1,3,4]thiadiazolo[3,2-a]pyrimidin-4(1H)-one] | > 1250 µg/mL | > 1250 µg/mL | > 1250 µg/mL | 1250 µg/mL (≈ 6000 µM) | < 2 mm |
| COc1ccc(N=Nc2c(O)nn3c(N)c4c(=O)nc5scnn5c4nc23)cc1 [Compound 17b, 6-Amino-9-hydroxy-10-(4-methoxyphenylazo)-5H-pyrazolo[1′,5′:1,2]pyrimido[5,4-e][1,3,4]thiadiazolo[3,2-a]pyrimidin-5-one] | 19.5 µg/mL (≈ 47.6 µM) | 625 µg/mL (≈ 1530 µM) | 39 µg/mL (≈ 95.3 µM) | 1250 µg/mL (≈ 3050 µM) | 12 mm |
| Nc1c2c(=O)nc3scnn3c2nc2nnnn12 [Compound 11, 6-Amino-5H-[1,3,4]thiadiazolo[2′,3′:2,3]pyrimido[4,5-d]tetrazolo[1,5-a]pyrimidin-5-one] | > 1250 µg/mL | 1250 µg/mL (≈ 4790 µM) | 1250 µg/mL (≈ 4790 µM) | 312 µg/mL (≈ 1200 µM) | 5 mm |
| Cc1ccc(N=Nc2c(N)nn3c(N)c4c(=O)nc5scnn5c4nc23)cc1 [Compound 16a, 6,9-Diamino-10-(4-methylphenylazo)-5H-pyrazolo[1′,5′:1,2]pyrimido[5,4-e][1,3,4]thiadiazolo[3,2-a]pyrimidin-5-one] | 78 µg/mL (≈ 199 µM) | > 1250 µg/mL | 156 µg/mL (≈ 398 µM) | 1250 µg/mL (≈ 3190 µM) | 9 mm |
| N#Cc1cn2ncsc2nc1=O [Compound 3, 6-cyano-7-oxo-7H-[1,3,4]thiadiazolo[3,2-a]pyrimidine] | > 1250 µg/mL | > 1250 µg/mL | > 1250 µg/mL | 1250 µg/mL (≈ 7020 µM) | < 2 mm |
| CC1=C(C(=O)c2ccccc2)C2C(=C(N)O1)C(=O)N=C1SC=NN12 (stereo not drawn) [Compound 8b, 6-Amino-9-benzoyl-8-methyl-5H,9aH-pyrano[3,4-e][1,3,4]thiadiazolo[3,2-a]pyrimidin-5-one] | 1250 µg/mL (≈ 3670 µM) | 312 µg/mL (≈ 918 µM) | 312 µg/mL (≈ 918 µM) | 156 µg/mL (≈ 458 µM) | 12 mm |
| CC(=O)C1=C(C)OC(N)=C2C(=O)N=C3SC=NN3C12 (stereo not drawn) [Compound 8a, 9-Acetyl-6-amino-8-methyl-5H,9aH-pyrano[3,4-e][1,3,4]thiadiazolo[3,2-a]pyrimidin-5-one] | 1250 µg/mL (≈ 4490 µM) | 625 µg/mL (≈ 2250 µM) | 1250 µg/mL (≈ 4490 µM) | 312 µg/mL (≈ 1120 µM) | 3 mm |
| N#Cc1c(N)nc(N)c2c(=O)nc3scnn3c12 [Compound 6, 6,8-Diamino-9-cyano-5-oxo-5H-pyrido[3,4-e][1,3,4]thiadiazolo[3,2-a]pyrimidine] | > 1250 µg/mL | 1250 µg/mL (≈ 4820 µM) | 1250 µg/mL (≈ 4820 µM) | > 1250 µg/mL | < 2 mm |
| Nc1c2c(=O)nc3scnn3c2nc2nncn12 [Compound 12, 6-Amino-5H-[1,2,4]triazolo[4′,3′:1,2]pyrimido[5,4-e][1,3,4]thiadiazolo[3,2-a]pyrimidin-5-one] | > 1250 µg/mL | > 1250 µg/mL | > 1250 µg/mL | 625 µg/mL (≈ 2400 µM) | 3 mm |
| Cc1cc2nc3c(c(N)n2n1)c(=O)nc1scnn13 [Compound 13, 6-Amino-9-methyl-5H-pyrazolo[1′,5′:1,2]pyrimido[5,4-e][1,3,4]thiadiazolo[3,2-a]pyrimidin-5-one] | 1250 µg/mL (≈ 4570 µM) | > 1250 µg/mL | > 1250 µg/mL | 1250 µg/mL (≈ 4570 µM) | 5 mm |
| Cc1n[nH]c2c1C1C(=C(N)O2)C(=O)N=C2SC=NN21 (stereo not drawn) [Compound 10a, 6-Amino-10-methyl-8,10b-dihydro-5H-pyrazolo[4′,3′:5,6]pyrano[3,4-e][1,3,4]thiadiazolo[3,2-a]pyrimidin-5-one] | 1250 µg/mL (≈ 4520 µM) | 625 µg/mL (≈ 2260 µM) | 312 µg/mL (≈ 1130 µM) | 625 µg/mL (≈ 2260 µM) | 13 mm |
| Nc1nn(-c2ccccc2)c2c1c(=O)nc1scnn12 [Compound 5, 3-Amino-1-phenylpyrazolo[4,3-e][1,3,4]thiadiazolo[3,2-a]pyrimidin-4(1H)-one] | 1250 µg/mL (≈ 4400 µM) | 625 µg/mL (≈ 2200 µM) | 1250 µg/mL (≈ 4400 µM) | 625 µg/mL (≈ 2200 µM) | < 2 mm |
| CCOC(=O)c1c(N)nc(N)c2c(=O)nc3scnn3c12 [Compound 7, Ethyl 6,8-diamino-5-oxo-5H-pyrido[3,4-e][1,3,4]thiadiazolo[3,2-a]pyrimidine-9-carboxylate] | 625 µg/mL (≈ 2040 µM) | 1250 µg/mL (≈ 4080 µM) | 1250 µg/mL (≈ 4080 µM) | 1250 µg/mL (≈ 4080 µM) | < 2 mm |
| Cc1ccc(N=Nc2c(O)nn3c(N)c4c(=O)nc5scnn5c4nc23)cc1 [Compound 17a, 6-Amino-9-hydroxy-10-(4-methylphenylazo)-5H-pyrazolo[1′,5′:1,2]pyrimido[5,4-e][1,3,4]thiadiazolo[3,2-a]pyrimidin-5-one] | 156 µg/mL (≈ 397 µM) | 625 µg/mL (≈ 1590 µM) | 156 µg/mL (≈ 397 µM) | 625 µg/mL (≈ 1590 µM) | 11 mm |
| COc1ccc(N=Nc2c(N)nn3c(N)c4c(=O)nc5scnn5c4nc23)cc1 [Compound 16b, 6,9-Diamino-10-(4-methoxyphenylazo)-5H-pyrazolo[1′,5′:1,2]pyrimido[5,4-e][1,3,4]thiadiazolo[3,2-a]pyrimidin-5-one] | 19.5 µg/mL (≈ 47.7 µM) | > 1250 µg/mL | 78 µg/mL (≈ 191 µM) | 625 µg/mL (≈ 1530 µM) | 12 mm |
| CC1=C(C#N)C2C(=C(N)O1)C(=O)N=C1SC=NN12 (stereo not drawn) [Compound 9a, 6-Amino-9-cyano-8-methyl-5-oxo-5H,9aH-pyrano[3,4-e][1,3,4]thiadiazolo[3,2-a]pyrimidine] | 625 µg/mL (≈ 2390 µM) | 312 µg/mL (≈ 1200 µM) | 625 µg/mL (≈ 2390 µM) | 312 µg/mL (≈ 1200 µM) | 11 mm |
| Cc1nn(-c2ccccc2)c2c1C1C(=C(N)O2)C(=O)N=C2SC=NN21 (stereo not drawn) [Compound 10b, 6-Amino-10-methyl-8-phenyl-8,10b-dihydro-5H-pyrazolo[4′,3′:5,6]pyrano[3,4-e][1,3,4]thiadiazolo[3,2-a]pyrimidin-5-one] | 312 µg/mL (≈ 887 µM) | 625 µg/mL (≈ 1770 µM) | 625 µg/mL (≈ 1770 µM) | 625 µg/mL (≈ 1770 µM) | 9 mm |
